Data from ChEMBL document CHEMBL1152474, “Synthesis and investigation of anti-inflammatory activity and gastric ulcerogenicity of novel nitric oxide-donating pyrazoline derivatives” (Eur J Med Chem, 2009).

Legend:
Rattus norvegicus [1] = assay: Antiinflammatory activity in albino rat assessed as inhibition of carrageenan-induced paw edema at 100 mg/kg, po treated for 30 mins measured after 2 hrs of carrageenan challenge; format: functional
Rattus norvegicus [2] = assay: Gastrotoxicity in albino rat assessed as ulcer index at 100 mg/kg, po after 5 hrs; format: toxicity, organism-based; design: dose 100 mg/kg, route oral; details: in vivo
Rattus norvegicus [3] = assay: Antiinflammatory activity in albino rat assessed as inhibition of carrageenan-induced paw edema at 100 mg/kg, po treated for 30 mins measured after 3 hrs of carrageenan challenge; format: functional
Rattus norvegicus [4] = assay: Antiinflammatory activity in albino rat assessed as inhibition of carrageenan-induced paw edema at 100 mg/kg, po treated for 30 mins measured after 1 hr of carrageenan challenge; format: functional
[5] = Induction of NO release in phosphate buffer at pH 1 at 100 uM by Griess assay; format: physicochemical; details: pH 1, 100 µM
[6] = Induction of NO release per mol of compound in phosphate buffer at pH 7.4 at 100 uM after 3 hrs by Griess assay; format: physicochemical; details: pH 7.4, 3 h
[7] = Induction of NO release per mol of compound in phosphate buffer at pH 7.4 at 100 uM after 6 hrs by Griess assay; format: physicochemical; details: pH 7.4, 6 h
[8] = Induction of NO release per mol of compound in phosphate buffer at pH 7.4 at 100 uM after 4 hrs by Griess assay; format: physicochemical; details: pH 7.4, 4 h
[9] = Induction of NO release per mol of compound in phosphate buffer at pH 7.4 at 100 uM after 2 hrs by Griess assay; format: physicochemical; details: pH 7.4, 2 h
[10] = Induction of NO release per mol of compound in phosphate buffer at pH 7.4 at 100 uM after 5 hrs by Griess assay; format: physicochemical; details: pH 7.4, 5 h
[11] = Induction of NO release per mol of compound in phosphate buffer at pH 7.4 at 100 uM after 1 hr by Griess assay; format: physicochemical; details: pH 7.4, 1 h
Rattus norvegicus [12] = assay: Reduction in 1-(2-Bromoacetyl)-4,5-dihydro-5-(2,4-dimethoxyphenyl)-3-(3,4-dimethoxyphenyl)-1H-pyrazole-induced ulcer in albino rat at 100 mg/kg, po after 5 hrs; format: functional; design: scale not given: the % may be the effect or the level left
Rattus norvegicus [13] = assay: Reduction in 4,5-Dihydro-5-(2,4-dimethoxyphenyl)-3-(3,4-dimethoxyphenyl)-1H-pyrazole-induced ulcer in albino rat at 100 mg/kg, po after 5 hrs; format: functional; design: scale not given: the % may be the effect or the level left
Rattus norvegicus [14] = assay: Reduction in 1-(2-Bromoacetyl)-5-(2-furyl)-4,5-dihydro-3-(3,4-dimethoxyphenyl)-1H-pyrazole-induced ulcer in albino rat at 100 mg/kg, po after 5 hrs; format: functional; design: scale not given: the % may be the effect or the level left
Rattus norvegicus [15] = assay: Reduction in 5-(2-furyl)-4,5-dihydro-3-(3,4-dimethoxyphenyl)-1H-pyrazole-induced ulcer in albino rat at 100 mg/kg, po after 5 hrs; format: functional; design: scale not given: the % may be the effect or the level left
Rattus norvegicus [16] = assay: Reduction in 1-(2-Bromopropionyl)-4,5-dihydro-5-(2,4-dimethoxyphenyl)-3-(3,4-dimethoxyphenyl)-1H-pyrazole-induced ulcer in albino rat at 100 mg/kg, po after 5 hrs; format: functional; design: scale not given: the % may be the effect or the level left
Rattus norvegicus [17] = assay: Reduction in 1-(2-Bromoacetyl)-5-(2,6-dichlorophenyl)-4,5-dihydro-3-(4-methoxyphenyl)-1H-pyrazole-induced ulcer in albino rat at 100 mg/kg, po after 5 hrs; format: functional; design: scale not given: the % may be the effect or the level left
Rattus norvegicus [18] = assay: Reduction in 5-(2,6-Dichlorophenyl)-4,5-dihydro-3-(4-methoxyphenyl)-1H-pyrazole-induced ulcer in albino rat at 100 mg/kg, po after 5 hrs; format: functional; design: scale not given: the % may be the effect or the level left
Rattus norvegicus [19] = assay: Reduction in 1-(2-Bromopropionyl)-5-(2-furyl)-4,5-dihydro-3-(3,4-dimethoxyphenyl)-1H-pyrazole-induced ulcer in albino rat at 100 mg/kg, po after 5 hrs; format: functional; design: scale not given: the % may be the effect or the level left

| SMILES | inhibition in vivo at 100 mg/kg (Rattus norvegicus [1]) [%] | UI (Rattus norvegicus [2]) | inhibition in vivo at 100 mg/kg (Rattus norvegicus [3]) [%] | inhibition in vivo at 100 mg/kg (Rattus norvegicus [4]) [%] | Activity [5] | NO release [6] [mol/mol] | NO release [7] [mol/mol] | NO release [8] [mol/mol] | NO release [9] [mol/mol] | NO release [10] [mol/mol] | NO release [11] [mol/mol] | Activity (Rattus norvegicus [12]) [%] | Activity (Rattus norvegicus [13]) [%] | Activity (Rattus norvegicus [14]) [%] | Activity (Rattus norvegicus [15]) [%] | Activity (Rattus norvegicus [16]) [%] | Activity (Rattus norvegicus [17]) [%] | Activity (Rattus norvegicus [18]) [%] | Activity (Rattus norvegicus [19]) [%] |
| --- | --- | --- | --- | --- | --- | --- | --- | --- | --- | --- | --- | --- | --- | --- | --- | --- | --- | --- | --- |
| COc1ccc(C2CC(c3ccc(OC)c(OC)c3)=NN2C(=O)C(C)Br)c(OC)c1 (stereo not drawn) | 63 | 23 | 69 | 58 | – | – | – | – | – | – | – | – | – | – | – | – | – | – | – |
| COc1ccc(C2=NN(C(=O)C(C)O[N+](=O)[O-])C(c3c(Cl)cccc3Cl)C2)cc1OC (stereo not drawn) | 53 | 7 | 55 | 47 | Not Active | 0.501 | 0.114 | 0.255 | 0.19 | 0.145 | 0.123 | – | – | – | – | – | – | – | – |
| COc1ccc(C2CC(c3ccc(OC)c(OC)c3)=NN2C(=O)CNc2ccc(/C(C)=N/O)cc2)c(OC)c1 (stereo not drawn) | 44 | 2 | 46 | 27 | Not Active | 0.148 | 0.268 | 0.194 | 0.114 | 0.302 | 0.137 | 93 | 71 | – | – | – | – | – | – |
| COc1ccc(C2=NN(C(=O)C(C)Br)C(c3ccco3)C2)cc1OC (stereo not drawn) | 36 | 10 | 42 | 22 | – | – | – | – | – | – | – | – | – | – | – | – | – | – | – |
| COc1ccc(C2=NN(C(=O)CNc3ccc(/C(C)=N/O)cc3)C(c3ccco3)C2)cc1OC (stereo not drawn) | 46 | 0 | 46 | 38 | Not Active | 0.138 | 0.267 | 0.167 | 0.128 | 0.277 | 0.118 | – | – | 92 | 96 | – | – | – | – |
| COc1ccc(C2=NN(C(=O)CBr)C(c3c(Cl)cccc3Cl)C2)cc1 (stereo not drawn) | 49 | 6 | 7 | 43 | – | – | – | – | – | – | – | – | – | – | – | – | – | – | – |
| COc1ccc(C2=NNC(c3ccco3)C2)cc1OC (stereo not drawn) | 53 | 26.5 | 60 | 45 | Not Active | – | – | – | – | – | – | – | – | – | – | – | – | – | – |
| COc1ccc(C2=NN(C(=O)CBr)C(c3c(Cl)cccc3Cl)C2)cc1OC (stereo not drawn) | 58 | 3 | 69 | 48 | – | – | – | – | – | – | – | – | – | – | – | – | – | – | – |
| COc1ccc(C2=NN(C(=O)CO[N+](=O)[O-])C(c3ccco3)C2)cc1OC (stereo not drawn) | 37 | 2 | 43 | 32 | Not Active | 0.281 | 0.535 | 0.483 | 0.211 | 0.614 | 0.126 | – | – | 84 | 92 | – | – | – | – |
| COc1ccc(C2=NN(C(=O)CO[N+](=O)[O-])C(c3c(Cl)cccc3Cl)C2)cc1OC (stereo not drawn) | 49 | 4 | 58 | 40 | Not Active | 0.516 | 0.625 | 0.555 | 0.395 | 0.738 | 0.147 | – | – | – | – | – | – | – | – |
| COc1ccc(C2=NN(C(=O)CBr)C(c3ccco3)C2)cc1OC (stereo not drawn) | 46 | 13 | 51 | 38 | Not Active | – | – | – | – | – | – | – | – | – | – | – | – | – | – |
| COc1ccc(C2CC(c3ccc(OC)c(OC)c3)=NN2C(=O)C(C)O[N+](=O)[O-])c(OC)c1 (stereo not drawn) | 61 | 3 | 56 | 44 | Not Active | 0.438 | 0.09 | 0.128 | 0.16 | 0.065 | 0.098 | – | 57 | – | – | 86 | – | – | – |
| COc1ccc2c(c1)c(CC(=O)O)c(C)n2C(=O)c1ccc(Cl)cc1 [INDOMETHACIN] | 67 | 43.5 | 82 | 58 | – | – | – | – | – | – | – | – | – | – | – | – | – | – | – |
| COc1ccc(C2=NN(C(=O)C(C)Br)C(c3c(Cl)cccc3Cl)C2)cc1OC (stereo not drawn) | 56 | 10 | 60 | 51 | – | – | – | – | – | – | – | – | – | – | – | – | – | – | – |
| COc1ccc(C2CC(c3ccc(OC)c(OC)c3)=NN2C(=O)CBr)c(OC)c1 (stereo not drawn) | 67 | 30 | 71 | 53 | – | – | – | – | – | – | – | – | – | – | – | – | – | – | – |
| COc1ccc(C2CC(c3ccc(OC)c(OC)c3)=NN2)c(OC)c1 (stereo not drawn) | 39 | 7 | 42 | 38 | – | – | – | – | – | – | – | – | – | – | – | – | – | – | – |
| COc1ccc(C2=NNC(c3c(Cl)cccc3Cl)C2)cc1OC (stereo not drawn) | 49 | 3 | 58 | 26 | – | – | – | – | – | – | – | – | – | – | – | – | – | – | – |
| COc1ccc(C2=NNC(c3c(Cl)cccc3Cl)C2)cc1 (stereo not drawn) | 58 | 31 | 60 | 54 | – | – | – | – | – | – | – | – | – | – | – | – | – | – | – |
| COc1ccc(C2=NN(C(=O)CO[N+](=O)[O-])C(c3c(Cl)cccc3Cl)C2)cc1 (stereo not drawn) | 42 | 0 | 52 | 34 | Not Active | 0.356 | 0.593 | 0.451 | 0.295 | 0.656 | 0.195 | – | – | – | – | – | 93 | 96 | – |
| COc1ccc(C2CC(c3ccc(OC)c(OC)c3)=NN2C(=O)CO[N+](=O)[O-])c(OC)c1 (stereo not drawn) | 48 | 5 | 58 | 38 | Not Active | 0.433 | 0.588 | 0.523 | 0.391 | 0.78 | 0.329 | 83 | 28 | – | – | – | – | – | – |
| COc1ccc(C2=NN(C(=O)C(C)O[N+](=O)[O-])C(c3ccco3)C2)cc1OC (stereo not drawn) | 39 | 7 | 42 | 35 | Not Active | 0.398 | 0.087 | 0.2 | 0.19 | 0.125 | 0.078 | – | – | – | 73 | – | – | – | 30 |
